One experiment relates to HeLa cells. The experiment is described as follows: Cell viability of HeLa cells treated with Peloruside analogs. It is filed as cell-based, human. To be noted: 10 to 1000 nM. The procedure:
(§1) Cells were treated with medium, DMSO, LX3111 or LX3136 at a final concentration of 10, 50, 100, 200, 300, 400, 500, 600, 800 or 1000 nM. Cell viability was measured by counting surviving cells or measuring luminescence at 48 hours after drug treatment using the Cell Titer-Glo Luminescent Cell Viability Assay (Promega).

The next experiment has as its system SK-MEL-5 cells. The experiment is described as follows: Cell viability of SK-MEL-5 cells treated with Peloruside analogs. To be noted: SK-MEL-5, 10 to 1000 nM. It is filed as cell-based, human. The procedure: as §1
The next experiment deals with SK-MEL-5. The experiment is described as follows: Growth of cultured human tumor cell line SK-MEL-5. It is filed as cell-based. Conditions: SK-MEL-5, up to 10 μM.
The next experiment deals with HeLa. Put plainly: Growth of cultured human tumor cell line HeLa. It is filed as cell-based. Conditions: up to 10 μM.
For experiment [1], the system named is Tubulin, purified from bovine brains. Put plainly: Tubulin polymerization in vitro. It is filed as biochemical. On the procedure:
Tubulin, purified from bovine brains and prepared in PEM-buffer (80 mM PIPES, 0.5 mM MgCl2, 1 mM EGTA, pH 6.9) was thawed under vacuum on ice. Tubulin was incubated at 37° C. until almost melted and resuspended to a final concentration of 2 mg/ml and placed on ice. Peloruside A or Taxol® was added into transparent 96-well plates (Coming Incorp. Costar) and placed on ice. GTP (Sigma) was added to a final concentration of 1 mM. The 96 well plate was warmed to 37° C. and 120 μl of tubulin solution was added into each well. The absorbance of the reaction at 340 nm over time (each 40-50 sec.) was measured on the spectrophotometer TECAN SPECTRAFluor Plus. Peloruside A or Taxol® was added to the tubulin at a final concentration of 5 or 10 μM.

Like-named read-outs stand apart in the source and are kept apart here.

For the compound `CC[C@H](/C=C(/C)C1C[C@H](OC)CC(O)C(C)(C)C2(O)OC(C[C@@H](OC)C2O)C[C@@H](OC)[C@H](O)C(=O)O1)CO` (stereo partly shown) [LX3111], the “inhibition of cell growth (antimitotic activity)” value in the experiment on HeLa cells and in the experiment with SK-MEL-5 cells was “potent antimitotic activity” each time.

As to `CC[C@H](/C=C(/C)C1C[C@@H](OC)CC(O)C(C)(C)C2(O)OC(C[C@@H](OC)C2O)C[C@@H](OC)[C@H](OCOC)C(=O)O1)CO` (stereo partly shown) [LX3136], the “inhibition of cell growth (antimitotic activity)” value in the experiment with HeLa cells and in the experiment on SK-MEL-5 cells was “potent antimitotic activity” each time.

Consider (−)-Peloruside A [Compound 40], for which the “effect on the growth of cultured human tumor cell line” value in the experiment with SK-MEL-5 is “no effect on the growth”; in the experiment with SK-MEL-5 (listed as (−)-Peloruside A), “inactive”; in the experiment with HeLa, “no effect on the growth”; in the experiment with HeLa (listed as (−)-Peloruside A) it was “inactive”. The “polymerization of tubulin dimers into microtubule polymers (microtubule-stabilizing activity)” value was “did not polymerize tubulin dimers into microtubule polymers” in experiment [1] and “biologically inactive” in experiment [1] (listed as (−)-Peloruside A).

The values above are taken from US20040235939A1, “Synthesis of peloruside a and analogs thereof for use as antitumor agents” (priority 2003, published 2004).
